From patent US11279733B2, “Peptide antibiotics” (priority 2017, dated 2022)
Values after ≈ are worked out from the molar mass of the structure shown. Like-named read-outs stand apart in the source and are kept apart here. Positions of bridges follow the written chain, without caps; N, C: chain ends. Non-standard residues stand in square brackets, D forms with d. Residues, ends and D or L forms follow the SMILES beside them. *: point of attachment. Decanoyl(3R-OH) = CCCCCCC[C@@H](O)CC(=O)*; Octanoyl(3-OH) = CCCCCC(O)CC(=O)*; X13 = CCCCCCCCCC(O)CC(=O)*; dDab = NCC[C@@H](N)C(=O)O; Dab = NCC[C@H](N)C(=O)O; Pentanoyl = CCCCC(=O)*

How the values were obtained:
A. baumannii ATCC 19606 = conditions: ATCC 19606
Procedure, shortened: (§1)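 Mid-log cultures grown in Mueller Hinton broth at 37° C were tested by 2-fold broth microdilution at 5×10^5 CFU/mL final. Compounds were dissolved in water and tested over a final range of 32 to 0.015 μg/mL.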

E. coli ATCC 25922 = conditions: ATCC 25922
Procedure, shortened: as §1

K. pneumoniae ATCC 13883 = conditions: ATCC 13883
Procedure, shortened: as §1

[1] = system: K. pneumoniae ATCC 700603, MDR; conditions: ATCC 700603
Procedure, shortened: as §1

[2] = system: K. pneumoniae ATCC BAA-2146, NDM-1 pos; conditions: ATCC BAA-2146
Procedure, shortened: as §1

P. aeruginosa ATCC 27853 = conditions: ATCC 27853
Procedure, shortened: as §1

[3] = system: P. aeruginosa GN_043, PmxR
Procedure, shortened: as §1

in vitro = conditions: human
Experimental: Cytotoxicity of the synthesised peptides was evaluated by comparison with commercially available colistin (polymyxin E), polymyxin B (Sigma chemical Co., St. Louis, Mo., U.S.A.) and synthetic octapeptin C4 by conducting lactate dehydrogenase (LDH) assay. CC50 values calculated based on curve fitting of dose dependent inhibition of cell growth represented the cytotoxicity of the peptide. Human kidney 2 (HK2) cells were seeded as 2000 cells per well in a 384 well cell culture plate in a final volume of 20 μL in DMEM/F12 medium (Invitrogen #11330057), in which 10% of FBS was added. Cells were incubated for 24 hours at 37° C., 5% CO2 to allow cells to attach to the plates. Similar conditions were employed for HEK293 and HepG2 cytotoxicity assays.
Colistin and polymyxin B were tested from a range of 2 mM to 0.9 μM. 120 μL of the 1 mM stock solutions in water of each synthesised peptide were freeze-dried and processed for LDH assay. After freeze-dry procedure, the compounds were reconstituted into 600 μM solutions using culture media. All tested compounds were diluted from 600 μM to 0.27 μM in 3-fold dilutions. Then 20 μL of each dilution was added into 20 uL of culture medium in quadruplicate to reach the final concentrations. The cells were incubated with the compounds for 24 h at 37° C., 5% CO2. After the incubation, 5 μL of culture medium was added to 50 μL of LDH assay buffer and incubated for 1 h at room temperature. The absorbance was read at 450 nm using Polarstar. The data was then analysed by Prism software. […] Nephrotoxicity Assessment in Human Proximal Tubule Cells.

A. baumannii GN_093 PmxR = conditions: GN 093 PmxR
Procedure, shortened: as §1

[4] = system: K. pneumoniae GN_102 PmxR; conditions: GN 102 PmxR
Procedure, shortened: as §1

[5] = system: K. pneumoniae GN_106, PmxR; conditions: GN 106, PmxR
Procedure, shortened: as §1

[6] = system: P. aeruginosa GN_105, PmxR; conditions: GN 105, PmxR
Procedure, shortened: as §1

[7] = system: S. aureus ATCC 25923, MSSA; conditions: ATCC 25923
Procedure, shortened: as §1

SMILES	MIC A. baumannii ATCC 19606 (A. baumannii ATCC 19606) [µg/mL]	MIC E. coli ATCC 25922 (E. coli ATCC 25922) [µg/mL]	MIC K. pneumoniae ATCC 13883 (K. pneumoniae ATCC 13883) [µg/mL]	MIC K. pneumoniae ATCC 700603, MDR [1] [µg/mL]	MIC K. pneumoniae ATCC BAA-2146, NDM-1 pos [2] [µg/mL]	MIC P. aeruginosa ATCC 27853 (P. aeruginosa ATCC 27853) [µg/mL]	MIC P. aeruginosa GN_043, PmxR [3] [µg/mL]	CC50 at 24 h (in vitro) [µM]	MIC P. aeruginosa GN_043, PmxR ([3]; polymyxin-resistant) [µg/mL]	MIC P. aeruginosa GN_105, PmxR [6] [µg/mL]	MIC S. aureus ATCC 25923, MSSA [7] [µg/mL]	also measured
CCCCC(=O)N[C@H](CCN)C(=O)N[C@H]1CCNC(=O)[C@H](CC(C)C)NC(=O)[C@H](CCN)NC(=O)[C@H](CCN)NC(=O)[C@H](CC(C)C)NC(=O)[C@@H](Cc2ccccc2)NC(=O)[C@H](CCN)NC1=O [compound 919, C4CO-D-Dab-cyc[L-Dab-L-Dab-D-Phe-L-Leu-L-Dab-L-Dab-L-Leu]] (Pentanoyl-[dDab][Dab][Dab][dF]L[Dab][Dab]L; lactam 2-C)	16 (≈ 16.7 µM)	32 (≈ 33.4 µM)	32 (≈ 33.4 µM)	>32	16 (≈ 16.7 µM)	2 (≈ 2.09 µM)	>32	> 300				
CCCCCCC[C@@H](O)CC(=O)N[C@H](CCN)C(=O)N[C@H]1CCNC(=O)[C@H](C)NC(=O)[C@H](CCN)NC(=O)[C@H](CCN)NC(=O)[C@H](CC(C)C)NC(=O)[C@@H](Cc2ccccc2)NC(=O)[C@H](CCN)NC1=O [compound 4943, 3(R)OH-nC9CO-D-Dab-cyc[L-Dab-L-Dab-D-Phe-L-Leu-L-Dab-L-Dab-L-Ala]] ({Decanoyl(3R-OH)}-[dDab][Dab][Dab][dF]L[Dab][Dab]A; lactam 2-C)	>32	8 (≈ 7.98 µM)	16 (≈ 16 µM)	8 (≈ 7.98 µM)	8 (≈ 7.98 µM)	1 (≈ 0.998 µM)		> 300	0.5 (≈ 0.499 µM)	16 (≈ 16 µM)	>32	MIC A. baumannii GN_093 PmxR (A. baumannii GN_093 PmxR): 32 µg/mL (≈ 31.9 µM); MIC K. pneumoniae GN_102 PmxR [4]: 8 µg/mL (≈ 7.98 µM); MIC K. pneumoniae GN_106, PmxR [5]: 16 µg/mL (≈ 16 µM)
CCCCCCC[C@@H](O)CC(=O)N[C@H](CCN)C(=O)N[C@H]1CCNC(=O)[C@H](CC(C)C)NC(=O)[C@H](CCN)NC(=O)[C@H](C)NC(=O)[C@H](CC(C)C)NC(=O)[C@@H](Cc2ccccc2)NC(=O)[C@H](CCN)NC1=O [compound 4945, 3(R)OH-nC9CO-D-Dab-cyc[L-Dab-L-Dab-D-Phe-L-Leu-L-Ala-L-Dab-L-Leu]] ({Decanoyl(3R-OH)}-[dDab][Dab][Dab][dF]LA[Dab]L; lactam 2-C)								181				MIC, A. baumannii ATCC 19606 (A. baumannii ATCC 19606): 16 µg/mL (≈ 15.8 µM); MIC, A. baumannii Cl Ptyela 10073 4512:2, PmxR (A. baumannii GN_093 PmxR): 32 µg/mL (≈ 31.5 µM); MIC, E. coli ATCC 25922 (E. coli ATCC 25922): 16 µg/mL (≈ 15.8 µM); MIC, K. pneumoniae ATCC 13883 (K. pneumoniae ATCC 13883): 16 µg/mL (≈ 15.8 µM); MIC, K. pneumoniae ATCC 700603, MDR [1]: 8 µg/mL (≈ 7.88 µM); MIC, K. pneumoniae ATCC BAA-2146, NDM-1 pos [2]: 8 µg/mL (≈ 7.88 µM); MIC, K. pneumoniae Cl Koprana 10065 0661:1, PmxR [4]: 4 µg/mL (≈ 3.94 µM); MIC, K. pneumoniae Cl 138-16347-20362, PmxR [5]: 16 µg/mL (≈ 15.8 µM); MIC, P. aeruginosa ATCC 27853 (P. aeruginosa ATCC 27853): 4 µg/mL (≈ 3.94 µM); MIC, P. aeruginosa FADDI-PA070, PmxR ([3]; Table 5, polymyxin-resistant): 4 µg/mL (≈ 3.94 µM); MIC, P. aeruginosa PA9704, PmxR [6]: 8 µg/mL (≈ 7.88 µM); MIC, S. Aureus ATCC 25923, MSSA [7]: 32 µg/mL (≈ 31.5 µM)
CCCCCCC[C@@H](O)CC(=O)N[C@H](CCN)C(=O)N[C@H]1CCNC(=O)[C@H](Cc2ccccc2)NC(=O)[C@H](CCN)NC(=O)[C@H](CCN)NC(=O)[C@H](CC(C)C)NC(=O)[C@@H](Cc2ccccc2)NC(=O)[C@H](CCN)NC1=O [compound 5004, 3(R)OH-nC9CO-D-Dab-cyc[L-Dab-L-Dab-D-Phe-L-Leu-L-Dab-L-Dab-L-Phe]] ({Decanoyl(3R-OH)}-[dDab][Dab][Dab][dF]L[Dab][Dab]F; lactam 2-C)	4 (≈ 3.71 µM)	8 (≈ 7.42 µM)	4 (≈ 3.71 µM)	8 (≈ 7.42 µM)	4 (≈ 3.71 µM)	4 (≈ 3.71 µM)		23	2 (≈ 1.85 µM)	8 (≈ 7.42 µM)		
CCCCCCC[C@@H](O)CC(=O)N[C@H](CCN)C(=O)N[C@H]1CCNC(=O)[C@H](Cc2ccccc2)NC(=O)[C@H](CCN)NC(=O)[C@H](CCN)NC(=O)[C@H](Cc2ccccc2)NC(=O)[C@@H](Cc2ccccc2)NC(=O)[C@H](CCN)NC1=O [compound 5005, 3(R)OH-nC9CO-D-Dab-cyc[L-Dab-L-Dab-D-Phe-L-Phe-L-Dab-L-Dab-L-Phe]] ({Decanoyl(3R-OH)}-[dDab][Dab][Dab][dF]F[Dab][Dab]F; lactam 2-C)	>32	8 (≈ 7.19 µM)	4 (≈ 3.6 µM)	8 (≈ 7.19 µM)	8 (≈ 7.19 µM)	2 (≈ 1.8 µM)		54	2 (≈ 1.8 µM)			
CCCCCC(O)CC(=O)N[C@H](CCN)C(=O)N[C@H]1CCNC(=O)[C@H](CC(C)C)NC(=O)[C@H](CCN)NC(=O)[C@H](CCN)NC(=O)[C@H](CC(C)C)NC(=O)[C@@H](Cc2ccccc2)NC(=O)[C@H](CCN)NC1=O (stereo partly drawn) [compound 5012, 3OH-nC7CO-D-Dab-cyc[L-Dab-L-Dab-D-Phe-L-Leu-L-Dab-L-Dab-L-Leu]] ({Octanoyl(3-OH)}-[dDab][Dab][Dab][dF]L[Dab][Dab]L; lactam 2-C)	>32	32 (≈ 31.5 µM)	8 (≈ 7.87 µM)	16 (≈ 15.7 µM)	32 (≈ 31.5 µM)	4 (≈ 3.94 µM)	4 (≈ 3.94 µM)	130		4 (≈ 3.94 µM)	>32	MIC A. baumannii GN_093 PmxR (A. baumannii GN_093 PmxR): >32 µg/mL; MIC K. pneumoniae GN_106, PmxR [5]: >32 µg/mL
CCCCCCCCCC(O)CC(=O)N[C@H](CCN)C(=O)N[C@H]1CCNC(=O)[C@H](CC(C)C)NC(=O)[C@H](CCN)NC(=O)[C@H](CCN)NC(=O)[C@H](CC(C)C)NC(=O)[C@@H](Cc2ccccc2)NC(=O)[C@H](CCN)NC1=O (stereo partly drawn) [compound 5014, 3OH-nC11CO-D-Dab-cyc[L-Dab-L-Dab-D-Phe-L-Leu-L-Dab-L-Dab-L-Leu]] (X13-[dDab][Dab][Dab][dF]L[Dab][Dab]L; lactam 2-C)	8 (≈ 7.46 µM)	2 (≈ 1.86 µM)	4 (≈ 3.73 µM)	8 (≈ 7.46 µM)	16 (≈ 14.9 µM)	4 (≈ 3.73 µM)	4 (≈ 3.73 µM)	19		32 (≈ 29.8 µM)	4 (≈ 3.73 µM)	
